Reference: patent US9738634B2, “Heterocyclic amide compound and herbicide” (SYNGENTA PARTICIPATIONS AG, priority 2013, dated 2017)

Columns and labels:
Type in all cases: in vivo
Settings in all cases: treatment dosage 320 g/ha
barnyard grass [1] = assay: Test Example 1: weedkilling efficacy, preemergent weed treatment in the submerged state; A: barnyard grass
Method in brief: (§1)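 Submerged pre-emergence treatment, water-surface application of compound emulsion at g/ha dosages; 4 cm flooded alluvial soil, weeds sown and 2.5-leaf rice transplanted same day. Rated after 3 weeks, greenhouse.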

bulrush [2] = assay: Test Example 1: weedkilling efficacy, preemergent weed treatment in the submerged state; B: bulrush
Method in brief: as §1

oval-leafed pondweed [3] = assay: Test Example 1: weedkilling efficacy, preemergent weed treatment in the submerged state; C: oval-leafed pondweed
Method in brief: as §1

transplanted rice = assay: Test Example 1: preemergent weed treatment in the submerged state, effect on crop; a: transplanted rice
Method in brief: as §1

barnyard grass [4] = assay: Test Example 2: weedkilling efficacy, growth period weed treatment in the submerged state; A: barnyard grass
Method in brief: (§2)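 Seedlings at 1-2 leaves in 4 cm-deep submerged alluvial soil received emulsion formulations on the water surface, dosed per hectare; effects were judged 3 weeks on.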

bulrush [5] = assay: Test Example 2: weedkilling efficacy, growth period weed treatment in the submerged state; B: bulrush
Method in brief: as §2

oval-leafed pondweed [6] = assay: Test Example 2: weedkilling efficacy, growth period weed treatment in the submerged state; C: oval-leafed pondweed
Method in brief: as §2

crabgrass [7] = assay: Test Example 3: weedkilling efficacy through soil treatment; D: crabgrass
Method in brief: (§3)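 Crop and weed responses were judged three weeks after a uniform surface spray of the water-diluted emulsion at the given g/ha rate. Seeds sat beneath about 1.5 cm of sterilized diluvial soil, and boxes stood in a greenhouse at 25 to 30° C.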

green foxtail [8] = assay: Test Example 3: weedkilling efficacy through soil treatment; E: green foxtail
Method in brief: as §3

barnyard grass [9] = assay: Test Example 3: weedkilling efficacy through soil treatment; F: barnyard grass
Method in brief: as §3

wild oat [10] = assay: Test Example 3: weedkilling efficacy through soil treatment; G: wild oat
Method in brief: as §3

black-grass [11] = assay: Test Example 3: weedkilling efficacy through soil treatment; H: black-grass
Method in brief: as §3

Italian ryegrass [12] = assay: Test Example 3: weedkilling efficacy through soil treatment; I: Italian ryegrass
Method in brief: as §3

common wind-grass [13] = assay: Test Example 3: weedkilling efficacy through soil treatment; J: common wind-grass
Method in brief: as §3

Indian mallow [14] = assay: Test Example 3: weedkilling efficacy through soil treatment; K: Indian mallow
Method in brief: as §3

redroot pigweed [15] = assay: Test Example 3: weedkilling efficacy through soil treatment; L: redroot pigweed
Method in brief: as §3

fig-leafed goosefoot [16] = assay: Test Example 3: weedkilling efficacy through soil treatment; M: fig-leafed goosefoot
Method in brief: as §3

chickweed [17] = assay: Test Example 3: weedkilling efficacy through soil treatment; N: chickweed
Method in brief: as §3

birds-eye speedwell = assay: Test Example 3: weedkilling efficacy through soil treatment; p: birds-eye speedwell
Method in brief: as §3

directly sown rice [18] = assay: Test Example 3: soil treatment, effect on crop; b: directly sown rice
Method in brief: as §3

corn [19] = assay: Test Example 3: soil treatment, effect on crop; c: corn
Method in brief: as §3

soybean [20] = assay: Test Example 3: soil treatment, effect on crop; d: soybean
Method in brief: as §3

wheat [21] = assay: Test Example 3: soil treatment, effect on crop; e: wheat
Method in brief: as §3

beet [22] = assay: Test Example 3: soil treatment, effect on crop; f: beet
Method in brief: as §3

rapeseed [23] = assay: Test Example 3: soil treatment, effect on crop; g: rapeseed
Method in brief: as §3

crabgrass [24] = assay: Test Example 4: weedkilling efficacy by foliar treatment; D: crabgrass
Method in brief: (§4)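 Seeds are spot-sown into sterilized diluvial soil and covered with about 1.5 cm of soil. After 14 days' greenhouse growth at 25 to 30° C, plants are sprayed on stems and leaves with diluted emulsion at the stated g/ha rate, then scored at 3 weeks.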

green foxtail [25] = assay: Test Example 4: weedkilling efficacy by foliar treatment; E: green foxtail
Method in brief: as §4

barnyard grass [26] = assay: Test Example 4: weedkilling efficacy by foliar treatment; F: barnyard grass
Experimental: (§5) Testing of Weedkilling Efficacy by Foliar Treatment
(§6) Sterilized diluvial soil was introduced into 21 cm long, 13 cm wide, 7 cm deep plastic boxes, and seeds of crabgrass, green foxtail, barnyard grass, wild oat, black-grass, Italian ryegrass, common wind-grass, Indian mallow, redroot pigweed, fig-leafed goosefoot, chickweed, catchweed, birds-eye speedwell, corn, soybean, rice, wheat, beet and rapeseed were each spot-sown, and covered with about 1.5 cm of soil, then the plants were grown in a greenhouse at 25 to 30° C.
(§7) After they had grown for 14 days, emulsions of compounds of the present invention prepared according to compounding example 2 were diluted with water to give the specified dosages, and applied uniformly onto the stem and leaf parts with a small sprayer. 3 weeks after the pesticide treatment the effect on each type of plant was investigated on the basis of the assessment criteria of test example 1.
(§8) A: barnyard grass, B: bulrush, C: oval-leafed pondweed, D: crabgrass, E: green foxtail, F: barnyard grass, G: wild oat, H: black-grass, I: Italian ryegrass, J: common wind-grass, K: Indian mallow, L: redroot pigweed, M: fig-leafed goosefoot, N: chickweed, O: catchweed, p: birds-eye speedwell, a: transplanted rice, b: directly sown rice, c: corn, d: soybean, e: wheat, f: beet, g: rapeseed
(§9) Further, pesticide dosage (g/ha) indicates the concentration regulated such that treatment was with only the stated number of grams (g), when calculated per hectare (ha).

wild oat [27] = assay: Test Example 4: weedkilling efficacy by foliar treatment; G: wild oat
Method in brief: as §4

black-grass [28] = assay: Test Example 4: weedkilling efficacy by foliar treatment; H: black-grass
Method in brief: as §4

Italian ryegrass [29] = assay: Test Example 4: weedkilling efficacy by foliar treatment; I: Italian ryegrass
Method in brief: as §4

common wind-grass [30] = assay: Test Example 4: weedkilling efficacy by foliar treatment; J: common wind-grass
Experimental: as §5, §6, §7, §8, §9

Indian mallow [31] = assay: Test Example 4: weedkilling efficacy by foliar treatment; K: Indian mallow
Method in brief: as §4

redroot pigweed [32] = assay: Test Example 4: weedkilling efficacy by foliar treatment; L: redroot pigweed
Method in brief: as §4

fig-leafed goosefoot [33] = assay: Test Example 4: weedkilling efficacy by foliar treatment; M: fig-leafed goosefoot
Method in brief: as §4

chickweed [34] = assay: Test Example 4: weedkilling efficacy by foliar treatment; N: chickweed
Method in brief: as §4

catchweed = assay: Test Example 4: weedkilling efficacy by foliar treatment; O: catchweed
Method in brief: as §4

directly sown rice [35] = assay: Test Example 4: foliar treatment, effect on crop; b: directly sown rice
Method in brief: as §4

corn [36] = assay: Test Example 4: foliar treatment, effect on crop; c: corn
Method in brief: as §4

soybean [37] = assay: Test Example 4: foliar treatment, effect on crop; d: soybean
Method in brief: as §4

wheat [38] = assay: Test Example 4: foliar treatment, effect on crop; e: wheat
Method in brief: as §4

beet [39] = assay: Test Example 4: foliar treatment, effect on crop; f: beet
Method in brief: as §4

rapeseed [40] = assay: Test Example 4: foliar treatment, effect on crop; g: rapeseed
Experimental: as §5, §6, §7, §8, §9

## CC1=C(c2cccnc2F)C(=O)N(C(C)(C)C(=O)Nc2cc(C)cc(Cl)n2)CO1 [B-2-15]
Barnyard grass [1]
  A (barnyard grass) weedkilling efficacy grade: 5 (weed kill ratio 90% or more, (practically complete withering))
Bulrush [2]
  B (bulrush) weedkilling efficacy grade: 5 (weed kill ratio 90% or more, (practically complete withering))
oval-leafed pondweed [3]
  C (oval-leafed pondweed) weedkilling efficacy grade: 5 (weed kill ratio 90% or more, (practically complete withering))
Transplanted rice
  a (transplanted rice) effect on crop grade: 3 (weed kill ratio 40% or more, less than 70%)
Barnyard grass [4]
  A (barnyard grass) weedkilling efficacy grade: 4 (weed kill ratio 70% or more, less than 90%)
Bulrush [5]
  B (bulrush) weedkilling efficacy grade: 5 (weed kill ratio 90% or more, (practically complete withering))
oval-leafed pondweed [6]
  C (oval-leafed pondweed) weedkilling efficacy grade: 5 (weed kill ratio 90% or more, (practically complete withering))
Crabgrass [7]
  D (crabgrass) weedkilling efficacy grade: 5 (weed kill ratio 90% or more, (practically complete withering))
Green foxtail [8]
  E (green foxtail) weedkilling efficacy grade: 5 (weed kill ratio 90% or more, (practically complete withering))
Barnyard grass [9]
  F (barnyard grass) weedkilling efficacy grade: 5 (weed kill ratio 90% or more, (practically complete withering))
Wild oat [10]
  G (wild oat) weedkilling efficacy grade: 3 (weed kill ratio 40% or more, less than 70%)
black-grass [11]
  H (black-grass) weedkilling efficacy grade: 5 (weed kill ratio 90% or more, (practically complete withering))
Italian ryegrass [12]
  I (Italian ryegrass) weedkilling efficacy grade: 5 (weed kill ratio 90% or more, (practically complete withering))
Common wind-grass [13]
  J (common wind-grass) weedkilling efficacy grade: 5 (weed kill ratio 90% or more, (practically complete withering))
Indian mallow [14]
  K (Indian mallow) weedkilling efficacy grade: 0 (weed kill ratio 5% or less (practically no effect))
Redroot pigweed [15]
  L (redroot pigweed) weedkilling efficacy grade: 0 (weed kill ratio 5% or less (practically no effect))
fig-leafed goosefoot [16]
  M (fig-leafed goosefoot) weedkilling efficacy grade: 3 (weed kill ratio 40% or more, less than 70%)
Chickweed [17]
  N (chickweed) weedkilling efficacy grade: 2 (weed kill ratio 20% or more, less than 40%)
birds-eye speedwell
  P (birds-eye speedwell) weedkilling efficacy grade: 4 (weed kill ratio 70% or more, less than 90%)
Directly sown rice [18]
  b (directly sown rice) effect on crop grade: 5 (weed kill ratio 90% or more, (practically complete withering))
Corn [19]
  c (corn) effect on crop grade: 0 (weed kill ratio 5% or less (practically no effect))
Soybean [20]
  d (soybean) effect on crop grade: 0 (weed kill ratio 5% or less (practically no effect))
Wheat [21]
  e (wheat) effect on crop grade: 0 (weed kill ratio 5% or less (practically no effect))
Beet [22]
  f (beet) effect on crop grade: 2 (weed kill ratio 20% or more, less than 40%)
Rapeseed [23]
  g (rapeseed) effect on crop grade: 2 (weed kill ratio 20% or more, less than 40%)
Crabgrass [24]
  D (crabgrass) weedkilling efficacy grade: 4 (weed kill ratio 70% or more, less than 90%)
Green foxtail [25]
  E (green foxtail) weedkilling efficacy grade: 5 (weed kill ratio 90% or more, (practically complete withering))
Barnyard grass [26]
  F (barnyard grass) weedkilling efficacy grade: 4 (weed kill ratio 70% or more, less than 90%)
Wild oat [27]
  G (wild oat) weedkilling efficacy grade: 3 (weed kill ratio 40% or more, less than 70%)
black-grass [28]
  H (black-grass) weedkilling efficacy grade: 4 (weed kill ratio 70% or more, less than 90%)
Italian ryegrass [29]
  I (Italian ryegrass) weedkilling efficacy grade: 5 (weed kill ratio 90% or more, (practically complete withering))
Common wind-grass [30]
  J (common wind-grass) weedkilling efficacy grade: 5 (weed kill ratio 90% or more, (practically complete withering))
Indian mallow [31]
  K (Indian mallow) weedkilling efficacy grade: 1 (weed kill ratio 5% or more, less than 20%)
Redroot pigweed [32]
  L (redroot pigweed) weedkilling efficacy grade: 2 (weed kill ratio 20% or more, less than 40%)
fig-leafed goosefoot [33]
  M (fig-leafed goosefoot) weedkilling efficacy grade: 4 (weed kill ratio 70% or more, less than 90%)
Chickweed [34]
  N (chickweed) weedkilling efficacy grade: 4 (weed kill ratio 70% or more, less than 90%)
catchweed
  O (catchweed) weedkilling efficacy grade: 3 (weed kill ratio 40% or more, less than 70%)
Directly sown rice [35]
  b (directly sown rice) effect on crop grade: 5 (weed kill ratio 90% or more, (practically complete withering))
Corn [36]
  c (corn) effect on crop grade: 4 (weed kill ratio 70% or more, less than 90%)
Soybean [37]
  d (soybean) effect on crop grade: 1 (weed kill ratio 5% or more, less than 20%)
Wheat [38]
  e (wheat) effect on crop grade: 2 (weed kill ratio 20% or more, less than 40%)
Beet [39]
  f (beet) effect on crop grade: 3 (weed kill ratio 40% or more, less than 70%)
Rapeseed [40]
  g (rapeseed) effect on crop grade: 4 (weed kill ratio 70% or more, less than 90%)
